Test results from patent US8455665B2, “3-phenoxymethylpyrrolidine compounds” (Theravance, Inc., priority 2009, dated 2013).

Tests used:
SERT [1] = target: T1, SERT (Homo sapiens, UniProt P31645); test: hSERT membrane radioligand binding assay (3H-citalopram); set-up: expressed in transfected cells; host or cells: HEK-293; conditions: hSERT membranes (HEK-293), 1.0 nM 3H-citalopram; for Ki: read-out: SERT pKi (converted)
Method: (§1) Membrane radioligand binding assays were used to measure inhibition of labeled ligand (^3H-citalopram or ^3H-nisoxetine or ^3H-WIN35428) binding to membranes prepared from cells expressing the respective human recombinant transporter (hSERT or hNET or hDAT) in order to determine the pKi values of test compounds at the transporters.
(§2) Recombinant human embryonic kidney (HEK-293) derived cell lines stably transfected with hSERT or hNET, respectively, were grown in DMEM medium supplemented with 10% dialyzed FBS (for hSERT) or FBS (for hNET), 100 μg/ml penicillin, 100 μg/ml streptomycin, 2 mM L-glutamine and 250 μg/ml of the aminoglycoside antibiotic G418, in a 5% CO2 humidified incubator at 37° C. When cultures reached 80% confluence, the cells were washed thoroughly in PBS (without Ca^2+ and Mg^2+) and lifted with 5 mM EDTA in PBS. Cells were pelleted by centrifugation, resuspended in lysis buffer (10 mM Tris-HCl, pH7.5 containing 1 mM EDTA), homogenized, pelleted by centrifugation, then resuspended in 50 mM Tris-HCl, pH 7.5 and 10% sucrose at 4° C. Protein concentration of the membrane suspension was determined using a Bio-Rad Bradford Protein Assay kit. Membranes were snap frozen and stored at −80° C. Chinese hamster ovary membranes expressing hDAT (CHO-DAT) were purchased from PerkinElmer and stored at −80° C.
(§3) Binding assays were performed in a 96-well assay plate in a total volume of 200 μl assay buffer (50 mM Tris-HCl, 120 mM NaCl, 5 mM KCl, pH 7.4) with 0.5, 1, and 3 μg membrane protein, for SERT, NET and DAT, respectively.
(§4) Stock solutions (10 mM in DMSO) of test compound were prepared and serial dilutions made using Dilution Buffer (50 mM Tris-HCl, 120 mM NaCl, 5 mM KCl, pH 7.4, 0.1% BSA, 400 μM ascorbic acid). Non-specific radioligand binding was determined in the presence of 1 μM duloxetine, 1 μM desipramine or 10 μM GBR12909 (each in Dilution Buffer) for the hSERT, hNET or hDAT assays, respectively.
(§5) Following a 60 minute incubation at 22° C. (or a period sufficient to reach equilibrium), the membranes were harvested by rapid filtration over a 96-well UniFilter GF/B plate, pretreated with 0.3% polyethyleneimine, and washed 6 times with […] (50 mM Tris-HCl, 0.9% NaCl, pH 7.5 at 4° C.). Plates were dried overnight at room temperature, approximately […] of MicroScint™-20 (Perkin Elmer) added and bound radioactivity quantitated via liquid scintillation spectroscopy. Inhibition curves and saturation isotherms were analyzed using GraphPad Prism Software package (GraphPad Software, Inc., San Diego, Calif.). IC50 values were generated from concentration response curves using the Sigmoidal Dose Response (variable slope) algorithm in Prism GraphPad. Kd and Bmax values for the radioligand were generated from saturation isotherms using the Saturation Binding Global Fit algorithm in Prism GraphPad. pKi (negative decadic logarithm of Ki) values for test compounds were calculated from the best-fit IC50 values, and the Kd value of the radioligand, using the Cheng-Prusoff equation (Cheng & Prusoff (1973) Biochem. Pharmacol. 22(23):3099-3108): Ki=IC50/(1+[L]/Kd), where [L]=concentration radioligand.
Target sequence in this assay (P31645 whole entry): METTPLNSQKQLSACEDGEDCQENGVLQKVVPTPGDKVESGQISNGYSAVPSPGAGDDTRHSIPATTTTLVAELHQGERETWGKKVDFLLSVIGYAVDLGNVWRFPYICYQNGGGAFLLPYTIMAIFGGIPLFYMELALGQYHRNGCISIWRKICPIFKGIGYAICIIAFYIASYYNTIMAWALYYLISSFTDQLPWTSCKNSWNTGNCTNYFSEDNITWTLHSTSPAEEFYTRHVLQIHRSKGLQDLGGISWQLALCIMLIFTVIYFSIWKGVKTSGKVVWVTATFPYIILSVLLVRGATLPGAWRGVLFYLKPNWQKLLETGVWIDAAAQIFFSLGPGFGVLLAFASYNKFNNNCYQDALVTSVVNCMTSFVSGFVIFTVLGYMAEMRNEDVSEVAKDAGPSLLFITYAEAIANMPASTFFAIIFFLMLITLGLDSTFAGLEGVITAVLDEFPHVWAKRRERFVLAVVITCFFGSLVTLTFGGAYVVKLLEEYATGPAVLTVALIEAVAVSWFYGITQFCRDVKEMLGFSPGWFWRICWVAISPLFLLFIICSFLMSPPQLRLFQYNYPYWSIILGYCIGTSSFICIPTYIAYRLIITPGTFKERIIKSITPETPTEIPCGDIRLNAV

NET [2] = target: T2, NET (Homo sapiens, UniProt P23975); test: hNET membrane radioligand binding assay (3H-nisoxetine); set-up: expressed in transfected cells; host or cells: HEK-293; conditions: hNET membranes (HEK-293), 1.0 nM 3H-nisoxetine; for Ki: read-out: NET pKi (converted)
Method: as §1, §2, §3, §4, §5

SERT [3] = target: T1, SERT; test: hSERT neurotransmitter uptake assay (3H-5-HT); type: cell-based; set-up: expressed in transfected cells; host or cells: HEK-293; conditions: serotonin reuptake inhibition, HEK-293 hSERT cells, 3H-5-HT (no asterisk); for IC50: read-out: SERT pIC50 (converted)
Method: (§6) Neurotransmitter uptake assays were used to measure inhibition of ^3H-serotonin (^3H-5-HT), ^3H-norepinephrine (^3H-NE), and ^3H-dopamine (^3H-DA) uptake into cells expressing the respective transporter (hSERT, hNET or hDAT) in order to determine the pIC50 values of test compounds at the transporters.
(§7) HEK-293 derived cell lines stably-transfected with hSERT, hNET, or hDAT, respectively, were grown in DMEM medium supplemented with 10% dialyzed FBS (for hSERT) or FBS (for hNET and hDAT), 100 μg/ml penicillin, 100 μg/ml streptomycin, 2 mM L-glutamine and 250 μg/ml of the aminoglycoside antibiotic G418 (for hSERT and hNET) or 800 ug/ml (for hDAT), in a 5% CO2 humidified incubator at 37° C. When cultures reached 80% confluence, the cells were washed thoroughly in PBS (without Ca^2+ and Mg^2+) and lifted with 5 mM EDTA in PBS. Cells were harvested by centrifugation at 1100 rpm for 5 minutes, washed once by resuspension in PBS, then centrifuged. The supernatant was discarded and the cell pellet resuspended, by gentle trituration, in room temperature Krebs-Ringer bicarbonate buffer containing HEPES (10 mM), CaCl2 (2.2 mM), ascorbic acid (200 μM) and pargyline (200 μM), pH 7.4. The final concentration of cells in the cell suspension was 7.5×10^4 cells/ml, 1.25×10^5 cells/ml, and 5.0×10^4 cells/ml for SERT, NET, and DAT cell lines, respectively.
(§8) Neurotransmitter uptake assays were performed in a 96-well assay plate in a total volume of 400 μl assay buffer (Krebs-Ringer bicarbonate buffer containing HEPES (10 mM), CaCl2 (2.2 mM), ascorbic acid (200 μM) and pargyline (200 μM), pH 7.4) with 1.5×10^4 and 2.5×10^4 cells, for SERT, NET, and DAT, respectively. […] Stock solutions (10 mM in DMSO) of test compound were prepared and serial dilutions prepared using 50 mM Tris-HCl, 120 mM NaCl, 5 mM KCl, pH 7.4, 0.1% BSA, 400 μM ascorbic acid. Test compounds were incubated for 30 minutes at 37° C. with the respective cells, prior to addition of radiolabeled neurotransmitter, ^3H-5-HT (20 nM final concentration), ^3H-NE (50 nM final concentration) or ^3H-DA (100 nM final concentration). Non-specific neurotransmitter uptake was determined in the presence of 2.5 μM duloxetine, 2.5 μM desipramine, or 10 uM GBR-12909 (each in Dilution Buffer) for the hSERT, hNET, or hDAT assays, respectively.
(§9) Following a 10 minute incubation, at 37° C., with radioligand, the cells were harvested by rapid filtration over a 96-well UniFilter GF/B plate, pretreated with 1% BSA, and washed 6 times with 650 μl wash buffer (ice cold PBS). Plates were dried overnight at 37° C., ˜45 μl of MicroScint™-20 (Perkin Elmer) added and incorporated radioactivity quantitated via liquid scintillation spectroscopy Inhibition curves were analyzed using GraphPad Prism Software package (GraphPad Software, Inc., San Diego, Calif.). IC50 values were generated from concentration response curves using the Sigmoidal Dose Response (variable slope) algorithm in Prism GraphPad.
Target sequence in this assay (P31645 whole entry): as above

NET [4] = target: T2, NET; test: hNET neurotransmitter uptake assay (3H-NE); type: cell-based; set-up: expressed in transfected cells; host or cells: HEK-293; conditions: norepinephrine reuptake inhibition, HEK-293 hNET cells, 3H-NE (no asterisk); for IC50: read-out: NET pIC50 (converted)
Method: as §6, §7, §8, §9

SERT [5] = target: T1, SERT; test: fluorescence-based serotonin uptake assay (Tsuruda et al. 2010); type: cell-based; conditions: serotonin reuptake inhibition, fluorescence-based assay (data indicated by an asterisk); read-out: SERT pIC50 (converted)
Target sequence in this assay (P31645 whole entry, species assumed): as the sequence (P31645 whole entry) above

NET [6] = target: T2, NET; test: fluorescence-based norepinephrine uptake assay (Tsuruda et al. 2010); type: cell-based; conditions: norepinephrine reuptake inhibition, fluorescence-based assay (data indicated by an asterisk); read-out: NET pIC50 (converted)

T2 sequence (P23975 whole entry): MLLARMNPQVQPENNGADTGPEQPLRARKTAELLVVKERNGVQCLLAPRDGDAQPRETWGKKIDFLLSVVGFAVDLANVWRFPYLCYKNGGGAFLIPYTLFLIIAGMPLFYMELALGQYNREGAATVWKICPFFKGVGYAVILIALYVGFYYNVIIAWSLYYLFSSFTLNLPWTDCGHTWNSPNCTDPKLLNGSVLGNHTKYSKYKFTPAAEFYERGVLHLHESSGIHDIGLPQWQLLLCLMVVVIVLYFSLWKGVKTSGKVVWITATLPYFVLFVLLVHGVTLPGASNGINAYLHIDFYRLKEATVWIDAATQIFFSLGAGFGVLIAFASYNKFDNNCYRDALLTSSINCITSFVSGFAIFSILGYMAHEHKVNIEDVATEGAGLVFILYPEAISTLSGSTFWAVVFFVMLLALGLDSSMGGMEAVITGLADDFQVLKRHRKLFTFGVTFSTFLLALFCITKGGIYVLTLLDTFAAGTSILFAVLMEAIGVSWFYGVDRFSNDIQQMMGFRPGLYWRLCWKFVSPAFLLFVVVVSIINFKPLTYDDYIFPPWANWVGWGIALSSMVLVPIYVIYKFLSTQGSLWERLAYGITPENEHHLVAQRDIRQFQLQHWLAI

Row | Structure (SMILES) | SERT pKi (SERT [1]) | Ki (NET [2]) [nM] | IC50 (SERT [3]) [nM] | IC50 (NET [4]) [nM] | Ki (SERT [1]) [nM] | NET pKi (NET [2]) | NET pIC50 (NET [4]) | SERT pIC50 (SERT [3]) | IC50 (SERT [5]) [nM] | IC50 (NET [6]) [nM]
1 | COCCC(Oc1ccc(Cl)cc1C)C1CCNC1 (single isomer, unassigned) [5 (2nd peak)] | ≧8.0 | ≤ 10 | ≤ 10 | ≤ 10 | – | – | – | – | – | –
2 | OC[C@@H](Oc1ccc(Cl)cc1Cl)[C@@H]1CCNC1 (stereo in doubt) [Example 2-1, (R)-2-(2,4-Dichlorophenoxy)-2-(S)-pyrrolidin-3-yl-ethanol] | – | – | ≤ 100 | ≤ 100 | – | – | – | – | – | –
3 | COC[C@H](Oc1ccc(Cl)cc1Cl)[C@H]1CCNC1 [Example 3, (S)-3-[(R)-1-(2,4-Dichlorophenoxy)-2-methoxyethyl]pyrrolidine] | – | ≤ 10 | ≤ 10 | ≤ 10 | ≤ 10 | – | – | – | – | –
4 | COCC(Oc1cccc(Cl)c1Cl)C1CCNC1 (centres unmarked) [Example 4-5, 3-[1-(2,3-Dichlorophenoxy)-2-methoxyethyl]pyrrolidine] | – | ≤ 10 | ≤ 100 | ≤ 10 | ≤ 10 | – | – | – | – | –
5 | COCC(Oc1cccc(Cl)c1Cl)C1CCNC1 (centres unmarked) [Example 4-6, 3-[1-(2,3-Dichlorophenoxy)-2-methoxyethyl]pyrrolidine] | ≧8.0 | – | – | – | – | ≧8.0 | ≧8.0 | – | – | –
6 | COC[C@@H](Oc1cccc(Cl)c1Cl)[C@H]1CCNC1 [Example 4-9, (S)-3-[(S)-1-(2,3-Dichlorophenoxy)-2-methoxyethyl]pyrrolidine] | – | ≤ 10 | ≤ 10 | ≤ 10 | ≤ 10 | – | – | – | – | –
7 | COC[C@H](Oc1cccc(Cl)c1Cl)[C@H]1CCNC1 [Example 4-10] | ≧8.0 | – | – | – | – | ≧8.0 | ≧8.0 | ≧8.0 | – | –
8 | COC[C@@H](Oc1cccc(F)c1Cl)[C@H]1CCNC1 [Example 4-13, (S)-3-[(S)-1-(2-Chloro-3-fluorophenoxy)-2-methoxyethyl]pyrrolidine] | – | ≤ 10 | ≤ 100 | ≤ 100 | ≤ 10 | – | – | – | – | –
9 | COC[C@@H](Oc1cccc(Cl)c1C)[C@H]1CCNC1 [Example 4-15, (S)-3-[(S)-1-(3-Chloro-2-methylphenoxy)-2-methoxyethyl]pyrrolidine] | – | ≤ 10 | ≤ 100 | ≤ 10 | ≤ 10 | – | – | – | – | –
10 | COC[C@H](Oc1cccc(Cl)c1C)[C@H]1CCNC1 [Example 4-16, (S)-3-[(R)-1-(3-Chloro-2-methylphenoxy)-2-methoxyethyl]pyrrolidine] | – | ≤ 10 | ≤ 10 | ≤ 10 | ≤ 10 | – | – | – | – | –
11 | Cc1c(Cl)cccc1O[C@@H](COC(C)C)[C@@H]1CCNC1 [Example 9-14, (R)-3-[(R)-1-(3-Chloro-2-methylphenoxy)-2-isopropoxyethyl]pyrrolidine] | – | ≤ 100 | – | – | ≤ 10 | – | – | – | ≤ 10 | ≤ 100
12 | CC(C)OC[C@H](Oc1cccc(Cl)c1C(F)(F)F)[C@@H]1CCNC1 [Example 9-18, (R)-3-[(R)-1-(3-Chloro-2-trifluoromethylphenoxy)-2-isopropoxyethyl]pyrrolidine] | – | ≤ 100 | – | – | ≤ 10 | – | – | – | ≤ 100 | ≤ 100
13 | CC(C)OC[C@H](Oc1ccc(Cl)cc1Cl)[C@@H]1CCNC1 [Example 9-22, (R)-3-[(R)-1-(2,4-Dichlorophenoxy)-2-isopropoxyethyl]pyrrolidine] | – | ≤ 1000 | – | – | ≤ 10 | – | – | – | ≤ 10 | ≤ 1000
14 | CC(C)OC[C@H](Oc1c(Cl)cccc1Cl)[C@@H]1CCNC1 [Example 9-27, (R)-3-[(R)-1-(2,6-Dichlorophenoxy)-2-isopropoxyethyl]pyrrolidine] | – | ≤ 1000 | – | – | ≤ 1000 | – | – | – | ≤ 1000 | ≤ 100
15 | CCOC[C@H](Oc1cccc2ccccc12)[C@H]1CCNC1 [Example 11, (S)-3-[(R)-2-Ethoxy-1-(naphthalen-1-yloxy)ethyl]pyrrolidine] | – | – | ≤ 10 | ≤ 10 | – | – | – | – | – | –
16 | FC(F)(F)c1ccc(O[C@@H](C2CCOCC2)[C@H]2CCNC2)cc1 [Example 13-11, (S)-3-[(S)-(Tetrahydropyran-4-yl)(4-trifluoromethylphenoxy)methyl]pyrrolidine] | – | ≤ 100 | – | – | ≤ 10 | – | – | – | ≤ 10 | ≤ 100
